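These data come from cells grown in 96-well plates and exposed to compound for 48 hours at five concentrations. Abbreviation: GI50, concentration required for 50% inhibition of growth. TGI denotes the concentration required for complete inhibition of growth.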
Columns and labels:
Assay in all cases: DTP human tumour cell line panel, 48 h
786-0 renal = test system: 786-0 renal
UACC-257 melanoma = test system: UACC-257 melanoma
NCI-H226 lung = test system: NCI-H226 lung
MDA-N = test system: MDA-N
HL-60(TB) leukemia = test system: HL-60(TB) leukemia
T-47D breast = test system: T-47D breast
UACC-62 melanoma = test system: UACC-62 melanoma
SK-OV-3 ovarian = test system: SK-OV-3 ovarian
SW-620 colon = test system: SW-620 colon
MOLT-4 leukemia = test system: MOLT-4 leukemia
SF-268 CNS = test system: SF-268 CNS
SNB-19 CNS = test system: SNB-19 CNS

| Compound | TGI (786-0 renal) [µM] | TGI (UACC-257 melanoma) [µM] | TGI (NCI-H226 lung) [µM] | TGI (MDA-N) [µM] | TGI (HL-60(TB) leukemia) [µM] | TGI (T-47D breast) [µM] | TGI (UACC-62 melanoma) [µM] | TGI (SK-OV-3 ovarian) [µM] | TGI (SW-620 colon) [µM] | TGI (MOLT-4 leukemia) [µM] | TGI (SF-268 CNS) [µM] | TGI (SNB-19 CNS) [µM] | GI50 (NCI-H226 lung) [µM] | GI50 (HL-60(TB) leukemia) [µM] | GI50 (UACC-62 melanoma) [µM] | GI50 (MOLT-4 leukemia) [µM] | GI50 (SF-268 CNS) [µM] |
| --- | --- | --- | --- | --- | --- | --- | --- | --- | --- | --- | --- | --- | --- | --- | --- | --- | --- |
| Cc1sc2nc3n(c(=O)c2c1C)N=C(c1ccccc1)CS3 | > 100 | > 100 | > 100 | > 100 | > 100 | > 100 | > 100 | > 100 | > 100 | > 100 | > 100 |  |  |  |  |  |  |
| Cc1cc2c(cc1-c1cc3c(cc1C)C(C(C)C)=C(O)C(=O)/C3=C\Nc1ccccn1)/C(=C/Nc1ccccn1)C(=O)C(O)=C2C(C)C | > 100 | > 100 | 77.8 | > 100 | 99.2 | > 100 | > 100 |  | > 100 | > 100 | > 100 | > 100 |  |  |  |  |  |
| O=C(CBr)NCCc1c[nH]c2ccccc12 | 2.74 | 8.54 | 2.64 | 4.44 | 3.69 |  | 3.29 | 7.31 | 7.71 | 1.92 | 7.59 | 20 |  |  |  |  |  |
| Cc1ccc(S(=O)(=O)NCCCSCCO)cc1 |  | > 100 | > 100 | > 100 | > 100 | > 100 |  | > 100 | > 100 | > 100 | > 100 | > 100 |  |  |  |  |  |
| COc1cc(/C=C/c2ccc(S(N)(=O)=O)cc2)cc(OC)c1 | 50.5 | 46.8 | 38.1 | 56 | 42.6 | 41.6 | 30.3 | 75.7 |  | 43.9 | > 100 | > 100 | 12.3 | 18.6 | 15.4 | 18.6 | 28.3 |
| COc1cc(C(=O)N(C(=O)N2CCCCC2)c2ccccc2)cc(OC)c1OC | > 100 | > 100 | > 100 | > 100 |  | > 100 | > 100 | > 100 | > 100 | > 100 |  | > 100 |  |  |  |  |  |
| CN(C)C=Nc1c2c(nc3ccccc13)CCCC2 | > 100 | > 100 | > 100 | > 100 | > 100 | > 100 | > 100 | > 100 |  | > 100 | > 100 | > 100 |  |  |  |  |  |
| CC(C)(CO)NC(=O)c1cccs1 | > 100 | > 100 |  |  | > 100 | > 100 | > 100 | > 100 | > 100 | > 100 | > 100 | > 100 |  |  |  |  |  |
| N#Cc1c(O)c(C=O)c(=O)n2c1[nH]c1ccccc12 | > 100 | > 100 | > 100 | > 100 |  |  | > 100 | > 100 | > 100 | > 100 | > 100 | > 100 |  |  |  |  |  |
| C=C(C)[C@@H]1CCC2=C(CC[C@]3(C)[C@@H]([C@@H](CCC=C(C)C)C(=O)O)[C@H](O)C[C@@]23C)[C@@]1(C)CCC(=O)O | > 100 | > 100 | > 100 | > 100 |  | > 100 |  | > 100 | > 100 | > 100 | > 100 | > 100 |  |  |  |  |  |
| CC1(C)OC2[C@@H](CO[C@@]3([C@H]4OC(C)(C)O[C@@H]4CO)OC(C)(C)O[C@@H]23)O1 (some centres not stated) | > 100 |  | > 100 | > 100 | > 100 | > 100 | > 100 | > 100 | > 100 | > 100 | > 100 | > 100 |  |  |  |  |  |
| COc1cc2c(cc1OC)-c1[nH]c3ccc([N+](=O)[O-])cc3c1CC(=O)N2 | > 100 | 47.1 | 1.66 | > 100 | 7.31 | > 60.5 | > 100 | > 29.8 | > 100 | > 76.4 |  | > 100 |  |  |  |  |  |
| O=C1[C@H](O)[C@@H]2CCC[C@@]23CCCN13 | > 100 | > 100 | > 100 | > 100 | > 100 | > 100 | > 100 | > 100 | > 100 | > 100 | > 100 |  |  |  |  |  |  |
| CON(C(=O)OC(C)(C)C)c1ccccc1 | > 100 | > 100 | > 100 |  | > 100 | > 100 | > 100 | > 100 | > 100 | > 100 | > 100 | > 100 |  |  |  |  |  |
| CCc1n[nH]c(=O)n1N=C(c1ccccc1)c1ccccc1 | > 100 | > 100 | > 100 | > 100 | > 100 | > 100 | > 100 |  | > 100 | > 100 | > 100 | > 100 |  |  |  |  |  |
| CC(=O)N1CCN(CCCCN2c3ccccc3Sc3cc(N=[N+]=[N-])ccc32)CC1 | 29.5 | 40.2 | 35.5 | 30.5 | 27.3 | 15.2 | 9.21 |  | 29.3 | 25.3 | 39.1 | 29.6 |  |  |  |  |  |
| Cc1csc2c(=O)n(COCc3ccccc3)c(=O)[nH]c12 | > 100 | > 100 | > 100 | > 100 | > 100 |  |  |  | > 100 | > 100 | > 100 | > 100 |  |  |  |  |  |
| CC(=O)CC12NC(=O)N(C)N=C1N(C)C(=O)N(C)C2=O (configuration not stated) | > 100 | 40.4 | > 100 | 43.3 | > 100 | > 100 | 73.3 | > 100 | > 100 | > 100 | > 100 |  |  |  |  |  |  |
| Cn1c(=O)oc2cc(C(=S)N3CCCCC3)ccc21 | > 100 | > 100 | > 100 | > 100 | > 100 |  | > 100 | > 100 | > 100 | > 100 | > 100 | > 100 |  |  |  |  |  |
